Like-named read-outs stand apart in the source and are kept apart here.
Assay: Release rate of acetaldehyde from precursor (acid hydrolysis) in phosphate buffer, UV extinction at 280 nm
Format: physicochemical
Conditions: for half-life at 2.5 mg/mL: phosphate buffer; for rate constant k: Precursor + H2O -> Ethanol + Acetaldehyde
Protocol: The release rate of acetaldehyde from the precursor according to formula II with n=1 is measured and compared to 1,2-di[(1′-ethoxy)ethoxy]propane and acetaldehyde diethyl. The measurements are conducted as described in S. M. Oon and D. G. Kubler, “Hydrolysis of Aldal Acetals”, J. Org. Chem., 1982, 47, 1166-1171. A phosphate buffer solution (2 mL) is placed into a quartz cuvette and 5 mg of the respective acetaldehyde precursor is added. The mixture is mixed well and sealed using Parafilm™. The release of acetaldehyde is monitored in a UV-Photometer measuring the increase of the extinction at 280 nm over time. Depending on reaction speed, all 3 to 10 seconds measurements are conducted. […] by the formula C(t)=C0+Cx×(1−e^−kt), wherein C(t) the absorption corresponding to the concentration of acetaldehyde at time t, C0 absorption corresponding to the concentration of acetaldehyde at time t=0, Cx the total amount of acetaldehyde present in the precursor, k the rate constant and t the reaction time. The rate constants are calculated by a numeric approximation program (TABLE CURVE 2D, ©AISN Software Inc.). The half life time λ is calculated from the rate constant using the equation λ=−ln(0.5)/k.

[1] = pH 3.5, read-out: half-life (acetaldehyde release) (converted)
[2] = pH 3.0, read-out: half-life (acetaldehyde release) (converted)

half-life at 2.5 mg/mL [1] [min]	half-life at 2.5 mg/mL [2] [min]	release of acetaldehyde (acidic conditions)	stability (neutral pH conditions)	half-life at 2.5 mg/mL (pH 2.8, calculated from rate constant, read-out: half life time λ (converted)) [min]	half-life at 2.5 mg/mL (pH 3.18, calculated from rate constant, read-out: half life time λ (converted)) [min]	half-life at 2.5 mg/mL (pH 3.81, calculated from rate constant, read-out: half life time λ (converted)) [min]	half-life at 2.5 mg/mL (pH 4.14, calculated from rate constant, read-out: half life time λ (converted)) [min]	SMILES	rate constant k (pH 2.8) [s⁻¹]	rate constant k (pH 3.18) [s⁻¹]	rate constant k (pH 3.81) [s⁻¹]	rate constant k (pH 4.14) [s⁻¹]
65.1	10.4	–	–	–	–	–	–	CCOC(C)OCC(C)OC(C)OCC (stereo not shown) [1,2-di[(1′-ethoxy)ethoyx]propane, 1,2-di[(1′-ethoxy)ethoxy]propane, reference compound]	–	–	–	–
16.1	5.1	rapidly releases acetaldehyde	stable	1.93	3.35	16.7	30.2	CCOC(C)OC(C)OCC (stereo not shown) [1-ethoxy-1-(1-ethoxy-ethoxy)-ethane]	0.005966	0.003446	0.00069	0.000382
41.5	9.65	–	–	–	–	–	–	CCOC(C)OCC [acetaldehyde diethyl acetal, reference compound]	–	–	–	–
